Data from patent US10828370B2, “Selectin and ICAM/VCAM peptide ligand conjugates” (Purdue Research Foundation, priority 2014, dated 2020).

Columns and labels:
[1] = tested on: TNF-α stimulated endothelial cells (ECs); assay: Relative binding affinity of EC-SEAL conjugates to endothelial cells (Streptavidin-HRP absorbance); type: cell-based; conditions: 3 μM treatments
[2] = tested on: Selectin (E-Selectin and S-Selectin); conditions: selectin-binding peptide, free sequence; literature reference; cited from earlier work

With “IEL/DGE-10,10 (peptide 1 IELLQARGC; peptide 2 DGEATDGC)” the “relative binding to endothelial cells vs single receptor-binding conjugates (FIG. 4)” value [1] was “greater binding”.
In the case of QITWAQLWNMMK, the IC50 [2] is given as about 0.16 µM.
In the case of IDLMQAR, the IC50 [2] is listed as about 200 µM.
For IELLQAR, the IC50 [2] is given as about 200 µM.
